Laboratory results reported in patent publication US20250145589A1, “PYRIDINE DERIVATIVE AND USE THEREOF” (SICHUAN HUIYU PHARMACEUTICAL CO., LTD., priority 2021, published 2025).

Experiments:
PI3Kδ = PI3Kδ (Homo sapiens (Human), UniProt O00329); experiment: Inhibition of PI3Kδ efficacy assay (ADP-Glo kinase assay); format: biochemical; conditions: Table 4; read-out: PI3Kδ inhibitory activity (IC50)
Method in brief: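 Luminescent ADP-Glo readout of PI3Kδ: after a 60 min RT reaction with PI/ATP substrate, ATP depletion (40 min) and ADP detection (40 min) steps followed. Compounds tested as eight five-fold serial dilutions; inhibition rates fitted to log(inhibitor) vs. response, variable slope, for IC50.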

KRAS^G12C-SOS1 = KRAS^G12C-SOS1 (Homo sapiens (Human), UniProt P01116, G12C); experiment: HTRF KRAS G12C/SOS1 binding assay; conditions: Table 5
Method in brief: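 Compound was serially diluted five-fold over eight points, with a 2 mM DMSO stock. After anti-tag-Tb3+ and anti-tag-XL665 were added, plates were incubated 3 h at 4 °C and read by HTRF (ex 337 nm, em 620/665 nm ratio). IC50 values come from four-parameter variable-slope fits.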

[1] = test system: NCI-H358 cells (KRAS G12C mutant); experiment: NCI-H358 cell proliferation inhibition (CellTiter-Glo); format: cell-based; conditions: Homo sapiens, NCI-H358, 72 h; H358 cells (G12C mutation), 3 days, Table 6; read-out: NCI-H358 (IC50)
[2] = test system: MIA PaCa-2 cells (KRAS G12C mutant); experiment: MIA PaCa-2 cell anti-proliferation (CellTiter-Glo); format: cell-based; conditions: Homo sapiens, 72 h; MIA Paca-2 cells, 3 days, Table 7; read-out: MIA PaCa-2 (IC50)
Method in brief: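 Viable-cell luminescence (CellTiter-Glo, ≥30 min at 25 °C) measured after a 3-day, 37 °C exposure to compounds at 9 points, 4-fold spaced, in DMEM containing 10% FBS plus 2.5% horse serum. IC50 derived versus no-inhibitor wells.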

[3] = test system: NCI-H358-AMGR drug-resistant cell line; experiment: NCI-H358-AMGR drug-resistant cell proliferation inhibitory activity test; format: cell-based; conditions: 72 h; NCI-H358-AMGR drug-resistant cells, 3 days incubation, CellTiter-Glo
Method in brief: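 Luminescent CellTiter-Glo read-out after 3-day, 37° C compound exposure (8 points, 5-fold series) of AMG510-resistant NCI-H358 cells plated at 4×10^3 per well.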

KRAS^G12C-SOS1, sequence (P01116-2 other isoform, or with tags, fused parts or gaps G12C): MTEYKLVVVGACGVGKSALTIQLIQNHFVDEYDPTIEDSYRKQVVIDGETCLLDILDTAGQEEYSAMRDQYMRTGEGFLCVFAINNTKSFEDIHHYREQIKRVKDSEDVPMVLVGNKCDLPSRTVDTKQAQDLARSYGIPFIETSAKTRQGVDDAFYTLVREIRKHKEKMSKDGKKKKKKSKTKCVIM
PI3Kδ, sequence (O00329 whole entry): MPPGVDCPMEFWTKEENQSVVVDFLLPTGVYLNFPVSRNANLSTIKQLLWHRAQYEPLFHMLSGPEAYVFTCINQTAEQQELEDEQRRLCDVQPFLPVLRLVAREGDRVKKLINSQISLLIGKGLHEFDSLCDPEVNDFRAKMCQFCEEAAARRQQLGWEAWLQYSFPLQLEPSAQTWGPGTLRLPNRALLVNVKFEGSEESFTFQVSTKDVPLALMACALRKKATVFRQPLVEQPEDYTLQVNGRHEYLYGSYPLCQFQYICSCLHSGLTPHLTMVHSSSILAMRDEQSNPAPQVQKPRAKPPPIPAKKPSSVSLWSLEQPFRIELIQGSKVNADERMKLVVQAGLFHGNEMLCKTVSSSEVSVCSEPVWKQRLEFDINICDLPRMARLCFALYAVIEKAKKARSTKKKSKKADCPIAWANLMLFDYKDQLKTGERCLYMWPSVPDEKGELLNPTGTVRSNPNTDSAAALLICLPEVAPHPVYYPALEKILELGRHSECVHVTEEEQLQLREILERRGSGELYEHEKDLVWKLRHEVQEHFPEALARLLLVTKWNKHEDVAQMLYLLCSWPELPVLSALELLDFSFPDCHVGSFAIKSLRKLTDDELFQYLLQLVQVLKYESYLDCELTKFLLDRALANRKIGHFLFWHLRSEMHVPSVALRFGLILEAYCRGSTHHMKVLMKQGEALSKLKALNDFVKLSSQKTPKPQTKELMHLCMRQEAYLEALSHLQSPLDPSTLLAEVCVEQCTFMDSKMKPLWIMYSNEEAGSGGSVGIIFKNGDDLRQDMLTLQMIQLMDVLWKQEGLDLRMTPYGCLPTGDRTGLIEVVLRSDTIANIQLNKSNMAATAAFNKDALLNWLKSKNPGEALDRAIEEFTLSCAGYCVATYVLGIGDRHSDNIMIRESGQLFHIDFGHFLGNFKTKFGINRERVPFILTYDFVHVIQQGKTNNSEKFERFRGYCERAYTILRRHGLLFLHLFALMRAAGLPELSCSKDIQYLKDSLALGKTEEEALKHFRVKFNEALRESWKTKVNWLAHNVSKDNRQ
PI3Kδ, sequence (P27986 whole entry partner): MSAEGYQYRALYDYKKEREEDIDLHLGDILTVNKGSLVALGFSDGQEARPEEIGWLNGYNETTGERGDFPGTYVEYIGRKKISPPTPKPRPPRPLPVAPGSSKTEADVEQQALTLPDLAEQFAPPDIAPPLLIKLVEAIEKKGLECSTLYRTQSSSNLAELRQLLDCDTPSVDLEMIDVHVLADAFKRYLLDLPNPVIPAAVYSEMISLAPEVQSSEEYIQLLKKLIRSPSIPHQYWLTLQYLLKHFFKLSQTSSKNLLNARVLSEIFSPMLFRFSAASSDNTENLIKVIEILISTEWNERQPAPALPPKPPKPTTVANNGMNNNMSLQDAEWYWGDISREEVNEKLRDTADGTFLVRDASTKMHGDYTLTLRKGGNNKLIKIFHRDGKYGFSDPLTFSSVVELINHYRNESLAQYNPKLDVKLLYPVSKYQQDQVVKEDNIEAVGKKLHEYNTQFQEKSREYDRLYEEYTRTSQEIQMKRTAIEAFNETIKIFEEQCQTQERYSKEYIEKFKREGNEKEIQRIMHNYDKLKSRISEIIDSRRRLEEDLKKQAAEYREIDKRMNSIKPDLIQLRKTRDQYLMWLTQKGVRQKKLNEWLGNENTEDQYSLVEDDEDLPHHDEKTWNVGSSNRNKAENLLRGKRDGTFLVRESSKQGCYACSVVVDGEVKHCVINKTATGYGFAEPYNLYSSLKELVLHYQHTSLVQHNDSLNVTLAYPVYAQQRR

In the case of `COc1ncc(-c2ccc3ncnc(C4CCN(C(=O)/C=C/C(C)=O)CC4)c3n2)cc1NS(=O)(=O)c1c(F)cccc1F` [Example 233, (E)-2,6-difluoro-N-(2-methoxy-5-(4-(1-(4-oxopent-2-enoyl)piperidin-4-yl)pyrido[3,2-d]pyrimidin-6-yl)pyridin-3-yl)benzenesulfonamide], the IC50 (PI3Kδ) is reported as 31.3 nM, the IC50 (KRAS^G12C-SOS1) is reported as 204 nM and the IC50 [1] is reported as 5 nM. For the same compound, the IC50 [2] was 14.2 nM and the IC50 [3] was 52 nM.
For `COc1ncc(-c2ccc3ncnc(C4CCN(C(=O)/C=C/C(C)=O)CC4)c3n2)cc1NS(=O)(=O)c1ccc(F)cc1F` [Example 234, (E)-2,4-difluoro-N-(2-methoxy-5-(4-(1-(4-oxopent-2-enoyl)piperidin-4-yl)pyrido[3,2-d]pyrimidin-6-yl)pyridin-3-yl)benzenesulfonamide], the IC50 (PI3Kδ) was 20 nM, the IC50 (KRAS^G12C-SOS1) was 292 nM and the IC50 [1] was 5.5 nM. It also gave an IC50 [2] of 14.9 nM and an IC50 [3] of 58.2 nM.
